Measurements as given in patent US7705188B2 (Arizona Board of Regents, a body corporate of the State of …, priority 2002, dated 2010).
Values after ≈ are worked out from the molar mass of the structure shown. Read-outs that look alike come from different tables or passages of the source.

Tests used:
[1] = system: BXPC-3; assay: Cytotoxicity, pancreas-a BXPC-3; assay type: cell-based, human; conditions: for GI50: Homo sapiens, BXPC-3, BXPC-3
[2] = system: MCF-7; assay: Cytotoxicity, breast MCF-7; assay type: cell-based, human; conditions: for GI50: Homo sapiens, MCF7
[3] = system: SF-268; assay: Cytotoxicity, CNS SF-268; assay type: cell-based, human; conditions: for GI50: Homo sapiens, SF-268, SF-268, read-out: CNS SF-268 GI50
[4] = system: NCI-H460; assay: Cytotoxicity, lung-NSC NCI-H460; assay type: cell-based, human; conditions: for GI50: Homo sapiens, NCI-H460, NCI-H460, read-out: Lung-NSC NCI-H460 GI50
[5] = system: KM201.2; assay: Cytotoxicity, colon KM201.2; assay type: cell-based, human; conditions: KM201.2; for GI50: Homo sapiens, read-out: Colon KM201.2 GI50
[6] = system: DU-145; assay: Cytotoxicity, prostate DU-145; assay type: cell-based, human; conditions: for GI50: Homo sapiens, DU-145, DU-145
[7] = system: P-388 and human tumor cell lines; assay: Cytotoxicity, summary over P-388 and human tumor cell lines; assay type: cell-based
[8] = system: Candida albicans; assay: Antimicrobial broth microdilution, MIC; assay type: cell-based; conditions: for MIC: read-out: Minimum inhibitory concentration
Description: (§1) Stilbene production has been correlated with the resistance of grape leaves to fungal infection.

[9] = system: Enterobacter cloacae; assay: Antimicrobial broth microdilution, MIC; assay type: cell-based; conditions: for MIC: read-out: Minimum inhibitory concentration
Description: as §1

[10] = system: Enterococcus faecalis; assay: Antimicrobial broth microdilution, MIC; assay type: cell-based; conditions: for MIC: read-out: Minimum inhibitory concentration
Description: as §1

[11] = system: Escherichla coli; assay: Antimicrobial broth microdilution, MIC; assay type: cell-based; conditions: Escherichla coli; for MIC: read-out: Minimum inhibitory concentration
Description: as §1

[12] = system: Micrococcus luteus; assay: Antimicrobial broth microdilution, MIC; assay type: cell-based; conditions: for MIC: read-out: Minimum inhibitory concentration
Description: as §1

[13] = system: Staphylococcus aureus; assay: Antimicrobial broth microdilution, MIC; assay type: cell-based; conditions: for MIC: read-out: Minimum inhibitory concentration
Description: as §1

[14] = system: Stenotrophomonas maltophilia; assay: Antimicrobial broth microdilution, MIC; assay type: cell-based; conditions: for MIC: read-out: Minimum inhibitory concentration
Description: as §1

[15] = system: Streptococcus pneumoniae; assay: Antimicrobial broth microdilution, MIC; assay type: cell-based; conditions: for MIC: read-out: Minimum inhibitory concentration
Description: as §1

[16] = system: Cryptococcus neoformans; assay: Antimicrobial broth microdilution, MIC; assay type: cell-based; conditions: for MIC: read-out: Minimum inhibitory concentration
Description: as §1

[17] = system: Neisseria gonorrhoeae; assay: Antimicrobial broth microdilution, MIC; assay type: cell-based; conditions: Neisseria gonorrhoeae; for MIC: read-out: Minimum inhibitory concentration
Description: as §1

Compound	GI50 [1] [µg/mL]	GI50 [2] [µg/mL]	GI50 [3] [µg/mL]	GI50 [4] [µg/mL]	GI50 [5] [µg/mL]	GI50 [6] [µg/mL]	Cytotoxicity against cancer cell lines, comparison in words [7]	Pancreas-a BXPC-3 GI50 [1] [µg/mL]	CNS SF-268 GI50 [3] [µg/mL]	Lung-NSC NCI-H460 GI50 [4] [µg/mL]	Prostate DU-145 GI50 [6] [µg/mL]	MIC [8] [µg/mL]	MIC [9] [µg/mL]	MIC ([10]; first line (r12)) [µg/mL]	MIC ([10]; second line (r15)) [µg/mL]	MIC [11] [µg/mL]	MIC [12] [µg/mL]	MIC [13] [µg/mL]	MIC [14] [µg/mL]	MIC [15] [µg/mL]	also measured
Oc1ccc(/C=C\c2cc(O)cc(O)c2)cc1 [Compound 1b, cis-Resveratrol]	15.5 (≈ 67.9 µM)	14.8 (≈ 64.8 µM)	5 (≈ 21.9 µM)	13.2 (≈ 57.8 µM)	22 (≈ 96.4 µM)	10.2 (≈ 44.7 µM)	slightly less inhibitory effects on the cancer cell lines tested than did the trans-isomer	–	–	–	–	–	–	–	–	–	–	–	–	–	–
COc1ccc(C=Cc2cc(OC)cc(OC)c2)cc1 [Compound 4b, 3,4′,5-trimethoxystilbene]	–	–	–	–	–	–	superior in activity to resveratrol (1)	0.35	0.56	0.62	1.5	–	–	–	–	–	–	–	–	–	–
COc1cc(/C=C/c2ccc(O)cc2)cc(OC)c1 [Compound 14d, (E)-3,5-dimethoxy-4′-hydroxy-stilbene]	6.5 (≈ 25.4 µM)	2.3 (≈ 8.97 µM)	4.3 (≈ 16.8 µM)	2.7 (≈ 10.5 µM)	3.4 (≈ 13.3 µM)	2.7 (≈ 10.5 µM)	slightly less active than their cis counterparts	–	–	–	–	–	–	–	–	–	–	–	–	–	–
COc1ccc(C=Cc2cc(O)cc(OC)c2)cc1 [Compound 14g, 3-hydroxy-4′,5-dimethoxystilbene]	–	–	–	–	–	–	comparable to that of resveratrol	–	–	–	–	–	–	–	–	–	–	–	–	–	–
COc1ccc(C=Cc2cc(O)cc(OC)c2)cc1 [Compound 14h, 3-hydroxy-4′,5-dimethoxystilbene]	–	–	–	–	–	–	slightly less active than their cis counterparts	–	–	–	–	> 64	> 64	> 64	> 64	> 64	16 to 64 (≈ 62.4 to 250 µM)	> 64	> 64	> 64	–
COc1ccc(C=Cc2cc(O)cc(O)c2)cc1 [Compound 14l, 3,5-dihydroxy-4′-methoxy-stilbene]	–	–	–	–	–	–	slightly less active than their cis counterparts	6.3	3.1	6.8	2.7	–	–	–	–	–	–	–	–	–	Breast MCF-7 GI50 [2]: 3.4 µg/mL; Colon KM201.2 GI50 [5]: 3.8 µg/mL
COc1cc(/C=C\c2ccccc2)cc(OC)c1OP(=O)(OCc1ccccc1)OCc1ccccc1 [Compound 14m, (Z)-3,5-dimethoxy-4-[O-bis(benzyl)phosphoryl]-stilbene]	–	–	–	–	–	–	–	5.4	38.5	10.7	35.6	–	–	–	–	–	–	–	–	–	Breast MCF-7 GI50 [2]: 9.0 µg/mL; Colon KM201.2 GI50 [5]: 24.7 µg/mL
COc1ccc(C(O)c2cc(OC)cc(OC)c2)cc1 (centres unmarked) [Compound 15a]	–	–	–	–	–	–	–	16.1	23.3	21.7	23.2	–	–	–	–	–	–	–	–	–	Colon KM201.2 GI50 [5]: 21.0 µg/mL
COc1cc(OC)cc(C(O)c2ccc(O)cc2)c1 (centres unmarked) [Compound 15c, 4′-Hydroxy-3,5-dimethoxybenzhydrol]	1.3 (≈ 4.99 µM)	2 (≈ 7.68 µM)	0.65 (≈ 2.5 µM)	2.3 (≈ 8.84 µM)	5.3 (≈ 20.4 µM)	5.8 (≈ 22.3 µM)	–	–	–	–	–	> 64	> 64	> 64	> 64	> 64	> 64	> 64	> 64	16 (≈ 61.5 µM)	MIC [16]: > 64 µg/mL; MIC [17]: 2 to 4 µg/mL (≈ 7.68 to 15.4 µM)
COc1cc(OC)cc(C(=O)c2ccc(O)cc2)c1 [Compound 16c]	–	–	–	–	–	–	–	4.0	3.8	3.0	4.1	–	–	–	–	–	–	–	–	–	Breast MCF-7 GI50 [2]: 2.2 µg/mL; Colon KM201.2 GI50 [5]: 3.6 µg/mL; Minimum inhibitory concentration [8]: * (no inhibition at 64 μg/ml); Minimum inhibitory concentration [16]: * (no inhibition at 64 μg/ml); Minimum inhibitory concentration [9]: * (no inhibition at 64 μg/ml); Minimum inhibitory concentration ([10]; first line (r12)): * (no inhibition at 64 μg/ml); Minimum inhibitory concentration ([10]; second line (r15)): * (no inhibition at 64 μg/ml); Minimum inhibitory concentration [11]: * (no inhibition at 64 μg/ml); Minimum inhibitory concentration [12]: * (no inhibition at 64 μg/ml); Minimum inhibitory concentration [17]: 32 to 64 µg/mL; Minimum inhibitory concentration [13]: * (no inhibition at 64 μg/ml); Minimum inhibitory concentration [14]: * (no inhibition at 64 μg/ml); Minimum inhibitory concentration [15]: 64 µg/mL (≈ 248 µM)
COc1ccc(C(=O)c2cc(O)cc(O)c2)cc1 [Compound 16e]	–	–	–	–	–	–	–	–	–	–	–	–	–	–	–	–	–	–	–	–	Minimum inhibitory concentration [8]: * (no inhibition at 64 μg/ml); Minimum inhibitory concentration [16]: * (no inhibition at 64 μg/ml); Minimum inhibitory concentration [9]: * (no inhibition at 64 μg/ml); Minimum inhibitory concentration ([10]; first line (r12)): * (no inhibition at 64 μg/ml); Minimum inhibitory concentration ([10]; second line (r15)): * (no inhibition at 64 μg/ml); Minimum inhibitory concentration [11]: * (no inhibition at 64 μg/ml); Minimum inhibitory concentration [12]: * (no inhibition at 64 μg/ml); Minimum inhibitory concentration [17]: * (no inhibition at 64 μg/ml); Minimum inhibitory concentration [13]: * (no inhibition at 64 μg/ml); Minimum inhibitory concentration [14]: * (no inhibition at 64 μg/ml); Minimum inhibitory concentration [15]: * (no inhibition at 64 μg/ml)
O=C(c1ccc(O)cc1)c1cc(O)cc(O)c1 [Compound 16g, 3,4′,5-trihydroxybenzophenone]	20.5 (≈ 89 µM)	30.6 (≈ 133 µM)	22.3 (≈ 96.9 µM)	25 (≈ 109 µM)	24.5 (≈ 106 µM)	15 (≈ 65.2 µM)	–	–	–	–	–	> 64	> 64	> 64	> 64	> 64	> 64	> 64	> 64	64 (≈ 278 µM)	MIC [16]: > 64 µg/mL; MIC [17]: > 64 µg/mL
COc1cc(O)cc(C(=O)c2ccc(O)cc2)c1 [Compound 16i, 3,4′-dihydroxy-5-methoxybenzophenone]	21.7 (≈ 88.8 µM)	26.8 (≈ 110 µM)	26.4 (≈ 108 µM)	12.1 (≈ 49.5 µM)	31.6 (≈ 129 µM)	16.5 (≈ 67.6 µM)	–	–	–	–	–	> 64	> 64	> 64	> 64	> 64	> 64	> 64	> 64	64 (≈ 262 µM)	MIC [16]: > 64 µg/mL; MIC [17]: 32 µg/mL (≈ 131 µM)
COc1ccc(C(=O)c2cc(O)cc(OC)c2)cc1 [Compound 16k, 4′,5-dimethoxy-3-hydroxybenzophenone]	15 (≈ 58.1 µM)	14.2 (≈ 55 µM)	13.9 (≈ 53.8 µM)	10.3 (≈ 39.9 µM)	16.2 (≈ 62.7 µM)	12.6 (≈ 48.8 µM)	–	–	–	–	–	> 64	> 64	> 64	> 64	> 64	> 64	> 64	> 64	32 to 64 (≈ 124 to 248 µM)	MIC [16]: 64 µg/mL (≈ 248 µM); MIC [17]: 16 to 32 µg/mL (≈ 61.9 to 124 µM)
Sodium Resverastatin Phosphate [Compound 14n]	–	–	–	–	–	–	essentially identical to 14c	–	–	–	–	–	–	–	–	–	–	–	–	–	Breast MCF-7 GI50 [2]: 0.73 µg/mL
